Columns and labels:
[1] = target: T1, hENPP2 (UniProtKB/SwissProt Q13822) (Homo sapiens (Human), UniProt Q13822); assay: fluorescent hENPP2 biochemical assay, FS-3 as substrate; conditions: read-out: FS3-IC50
Protocol: Compound IC50 values are determined in a fluorescent hENPP2 (UniProtKB/SwissProt Sequence ref Q13822) biochemical assay using the fluorogenic autotaxin substrate FS-3 as substrate. FS-3 is a doubly labeled analog of LPC wherein the fluorophore is quenched through intramolecular energy transfer. Without hENPP2, the emission of the probe is quenched. If the substrate is hydrolyzed by hENPP2, the emission of the probe is not quenched anymore resulting in a fluorescence increase.
The enzyme is diluted in 50 mM Tris-HCl pH 8.0, 250 mM NaCl, 5 mM KCl, 1 mM MgCl2, 1 mM CaCl2, 0.1% fatty acid free BSA in a total volume of 20 μL. Enzyme mixture is added to compounds and the resulting mixture is incubated for 30 min at room temperature under shaking. The reaction is started by the addition of 20 μL of 0.75 μM FS-3 diluted in the same buffer as described above and the mixture is incubated at 30° C. for 30 min. Fluorescence is read on the Envision (Excitation 485 nm, emission 520 nm).

[2] = target: T1, hENPP2; assay: hENPP2 biochemical assay, LPC as substrate; conditions: LPC (palmitoyl 16:0) as substrate
In short: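 Human ENPP2 in 50 mM Tris-HCl pH 8.5, 500 mM NaCl, 5 mM KCl, 10 mM CaCl2, 0.1% fatty-acid-free BSA, reacted 30 min at 37 °C with LPC 16:0 (150 µM solution added 1:1). Released choline measured via choline oxidase/peroxidase/TOOS/4-aminoantipyrine quinoneimine dye at 555 nm; IC50 reported.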

Row | SMILES | IC50 [1] | LPC-IC50 [2] | IC50 [2]
1 | CCc1nc2ccc(N3CCCCS3(=O)=O)cn2c1N(C)c1nc(-c2ccc(Cl)cc2)cs1 [Compound 207, 2-(2-ethyl-4-((4-(4-chlorophenyl)thiazol-2-yl)(methyl)amino)imidazo[1,2-a]pyridin-6-yl)-1-[1,2]thiazinane-1,1-dioxide] | 0.01 to 100 nM |  | > 1000 nM
2 | CCc1nc2ccc(C3CCN(C(=O)CN4CCCC4)CC3)cn2c1N(C)c1nc(-c2ccc(F)cc2)cs1 [Compound 126, 1-(4-(2-ethyl-3-((4-(4-fluorophenyl)thiazol-2-yl)(methyl)amino)imidazo[1,2-a]pyridin-6-yl)piperidin-1-yl)-2-(pyrrolidin-1-yl) ethanone] | 0.01 to 100 nM |  | 100 to 500 nM
3 | CCc1nc2ccc(N3CCN(C(=O)CCCO)CC3)cn2c1N(C)c1nc(-c2ccc(F)cc2)cs1 [Compound 52, 1-(4-(2-ethyl-3-((4-(4-fluorophenyl)thiazol-2-yl)(methyl)amino)imidazo[1,2-a]pyridin-6-yl)piperazin-1-yl)-4-hydroxybutan-1-one] | 0.01 to 100 nM |  | > 1000 nM
4 | CCc1nc2ccc(C3CCN(CC(=O)N4CC[C@H](C#N)C4)CC3)cn2c1N(C)c1nc(-c2ccc(F)cc2)cs1 [Compound 116, (S)-1-(2-(4-(2-ethyl-3-((4-(4-fluorophenyl)thiazol-2-yl)(methyl)amino)imidazol[1,2-a]pyridin-6-yl)piperidin-1-yl)acetoyl)pyrrolidine-3-carbonitrile] | 0.01 to 100 nM |  | 100 to 500 nM
5 | CCc1nc2ccc(C3CCN(C(C)C)CC3)cn2c1N(C)c1nc(-c2ccc(F)cc2)cs1 [Compound 218, N-(2-ethyl-6-(1-isopropylpiperidin-4-yl)imidazo[1,2-a]pyridin-3-yl)-4-(4-fluorophenyl)-N-methylthiazol-2-amine] | 0.01 to 100 nM |  | > 1000 nM
6 | CCc1nc2ccc(N3CCN(C(=O)OCCO)CC3)cn2c1N(C)c1nc(-c2ccc(F)cc2)cs1 [Compound 43, 2-hydroxyethyl 4-(2-ethyl-3-((4-(4-fluorophenyl)thiazol-2-yl)(methyl)amino)imidazo[1,2-a]pyridin-6-yl)piperazine-1-carboxylate] | 0.01 to 100 nM |  | > 1000 nM
7 | CCc1nc2ccc(N3CCN(C(=O)CO)CC3)cn2c1N(C)c1nc(-c2ccc(F)cc2)cs1 [Compound 50, 1-(4-(2-ethyl-3-((4-(4-fluorophenyl)thiazol-2-yl)(methyl)amino)imidazo[1,2-a]pyridin-6-yl)piperazin-1-yl)-2-hydroxyethanone] | 0.01 to 100 nM |  | 500 to 1000 nM
8 | CCc1nc2ccc(C3CCN(S(C)(=O)=O)CC3)cn2c1N(C)c1nc(-c2ccc(F)cc2F)cs1 [Compound 100, 4-(2,4-difluorophenyl)-N-(2-ethyl-6-(1-(methylsulfonyl)piperidin-4-yl)imidazo [1,2-a]pyridin-3-yl)-N-methylthiazol-2-amine] | 0.01 to 100 nM |  | > 1000 nM
9 | CCc1nc2ccc(N3CCN(C(=O)C4CCC(=O)N4)CC3)cn2c1N(C)c1nc(-c2ccc(F)cc2)cs1 (stereo not drawn) [Compound 201, 5-(4-(2-ethyl-3-((4-(4-fluorophenyl)thiazol-2-yl)(methyl)amino)imidazo[1,2-a]pyridin-6-yl)piperazine-1-carbonyl)pyrrolidin-2-one] | 0.01 to 100 nM |  | > 1000 nM
10 | CCc1nc2ccc(C3CCN(S(C)(=O)=O)CC3)cn2c1N(C)c1nc(-c2ccc(F)cc2)c(C(N)=O)s1 [Compound 137, 2-((2-ethyl-6-(1-(methylsulfonyl)piperidin-4-yl)imidazo[1,2-a]pyridin-3-yl)(methyl)amino)-4-(4-fluorophenyl)thiazole-5-carboxamide] | 0.01 to 100 nM |  | > 1000 nM
11 | CCc1nc2ccc(N3CCN(CC(=O)N(C)C)CC3)cn2c1N(C)c1nc(-c2ccc(F)cc2)c(C(=O)C(F)(F)F)s1 [Compound 158, 2-(4-(2-ethyl-3-((4-(4-fluorophenyl)-5-(2,2,2-trifluoroacetoyl)thiazol-2-yl)(methyl)amino)imidazo[1,2-a]pyridin-6-yl)piperazin-1-yl)-N,N-dimethylacetamide] | 0.01 to 100 nM |  | 100 to 500 nM
12 | CCc1nc2ccc(C3CCN(CC(N)=O)CC3)cn2c1N(C)c1nc(-c2ccc(F)cc2)cs1 [Compound 125, 2-(4-(2-ethyl-3-((4-(4-fluorophenyl)thiazol-2-yl)(methyl)amino)imidazo[1,2-a]pyridin-6-yl)piperidin-1-yl)acetamide] | 0.01 to 100 nM |  | > 1000 nM
13 | CCc1nc2ccc(C3CCN(C(=O)CN4CC(O)C4)CC3)cn2c1N(C)c1nc(-c2ccc(F)cc2)cs1 [Compound 128, 1-(4-(2-ethyl-3-((4-(4-fluorophenyl)thiazol-2-yl)(methyl)amino)imidazo[1,2-a]pyridin-6-yl)piperidin-1-yl)-2-(3-hydroxyazetidin-1-yl)ethanone] | 0.01 to 100 nM |  | 100 to 500 nM
14 | CCc1nc2ccc(C3CCN(C(=O)OC(C)(C)C)CC3)cn2c1N(C)c1nc(-c2ccc(F)cc2)cs1 [Compound 219, tert-butyl 4-(2-ethyl-3-((4-(4-fluorophenyl)thiazol-2-yl)(methyl)amino)imidazo[1,2-a]pyridin-6-yl)piperidine-1-carboxylate] | 0.01 to 100 nM |  | > 1000 nM

The next lines start with the values.

Row | IC50 [1] | LPC-IC50 [2] | IC50 [2] | SMILES
15 | 0.01 to 100 nM | not active |  | CCc1nc2ccc(C3=CCN(S(=O)(=O)CCCCl)CC3)cn2c1N(C)c1nc(-c2ccc(F)cc2)cs1 [Compound 233, N-(6-(1-(3-chloropropylsulfonyl)-1,2,3,6-tetrahydropyridin-4-yl)-2-ethylimidazo[1,2-a]pyridin-3-yl)-4-(4-fluorophenyl)-N-methylthiazol-2-amine]
16 | 0.01 to 100 nM |  | > 1000 nM | CCc1nc2ccc(C3=CCN(S(C)(=O)=O)C3)cn2c1N(C)c1nc(-c2ccc(Cl)cc2)cs1 [Compound 68, 4-(4-chlorophenyl)-N-(2-ethyl-6-(1-(methylsulfonyl)-2,5-dihydro-1H-pyrrol-3-yl)imidazo[1,2-a]pyridin-3-yl)-N-methylthiazol-2-amine]
17 | 0.01 to 100 nM |  | 100 to 500 nM | CCc1nc2ccc(N3CCN(CC(=O)N(C)C)CC3)cn2c1N(C)c1nc(-c2ccc(F)cc2)cs1 [Compound 35, 2-(4-(2-ethyl-3-((4-(4-fluorophenyl)thiazol-2-yl)(methyl)amino)imidazo[1,2-a]pyridin-6-yl)piperazin-1-yl)-N,N-dimethylacetamide]
18 | 0.01 to 100 nM |  | 100 to 500 nM | CCC(=O)N1CCC(c2ccc3nc(CC)c(N(C)c4nc(-c5ccc(F)cc5)cs4)n3c2)CC1 [Compound 215, 1-(4-(2-ethyl-3-((4-(4-fluorophenyl)thiazol-2-yl)(methyl)amino)imidazo[1,2-a]pyridin-6-yl)piperidin-1-yl)propan-1-one]
19 | 0.01 to 100 nM |  | > 1000 nM | CCc1nc2ccc(C3=CCN(C(=O)OC(C)(C)C)CC3)cn2c1N(C)c1nc(-c2ccc(F)cc2)cs1 [Compound 214, tert-butyl 4-(2-ethyl-3-((4-(4-fluorophenyl)thiazol-2-yl)(methyl)amino)imidazo[1,2-a]pyridin-6-yl)-5,6-dihydropyridine-1(2H)-carboxylate]
20 | 0.01 to 100 nM |  | > 1000 nM | CCOC(=O)CN1CC=C(c2ccc3nc(CC)c(N(C)c4nc(-c5ccc(F)cc5)cs4)n3c2)CC1 [Compound 108, ethyl 2-(4-(2-ethyl-3-((4-(4-fluorophenyl)thiazol-2-yl)(methyl)amino)imidazo[1,2-a]pyridin-6-yl)-5,6-dihydropyridin-1(2H)-yl)acetate]
21 | 0.01 to 100 nM |  | > 1000 nM | CCc1nc2ccc(N3CCN(Cc4nnnn4C4CC4)CC3)cn2c1N(C)c1nc(-c2ccc(F)cc2)cs1 [Compound 39, N-(6-(4-((1-cyclopropyl-1H-tetrazol-5-yl)methyl)piperazin-1-yl)-2-ethylimidazo[1,2-a]pyridin-3-yl)-4-(4-fluorophenyl)-N-methylthiazol-2-amine]
22 | 0.01 to 100 nM |  | > 1000 nM | CCc1nc2ccc(C3=CCN(S(=O)(=O)C(F)(F)F)CC3)cn2c1N(C)c1nc(-c2ccc(Cl)cc2)cs1 [Compound 210, 4-(4-chlorophenyl)-N-(2-ethyl-6-(1-(trifluoromethylsulfonyl)-1,2,3,6-tetrahydropyridin-4-yl)imidazo[1,2-a]pyridin-3-yl)-N-methylthiazol-2-amine]
23 | 0.01 to 100 nM |  | > 1000 nM | CCc1nc2ccc(C3CCNCC3)cn2c1N(C)c1nc(-c2ccc(F)cc2)cs1 [Compound 216, N-(2-ethyl-6-(piperidin-4-yl)imidazo[1,2-a]pyridin-3-yl)-4-(4-fluorophenyl)-N-methylthiazol-2-amine]
24 | 0.01 to 100 nM |  | > 1000 nM | CCc1nc2ccc(C3=CCN(C(=O)Nc4cccs4)CC3)cn2c1N(C)c1nc(-c2ccc(F)cc2)cs1 [Compound 208, 4-(2-ethyl-3-((4-(4-fluorophenyl)thiazol-2-yl)(methyl)amino)imidazo[1,2-a]pyridin-6-yl)-N-(thiophen-2-yl)-5,6-dihydropyridine-1(2H)-carboxamide]

Reference: US9670204B2, “Compounds and pharmaceutical compositions thereof for the treatment of inflammatory disorders” (Galapagos NV, priority 2013, dated 2017)
